Read-outs that look alike come from different tables or passages of the source.
Legend:
[1] = Maximum tolerated dose (MTD) study of PEGylated conjugates of cabazitaxel in athymic mice; assay type: in vivo, female athymic nu/nu mice; conditions: qw x 3, iv; for BW Nadir / BW Nadir (day) / Treatment-Related Deaths: MTD study 20K conjugates; for Treatment-Related Deaths: N=5
Procedure: Purpose. This study was performed to determine appropriate doses of each compound for tumor xenograft studies. In those studies, it is desirable to administer the maximum dose of test compound that will not cause excessive loss of body weight. In general, loss of ˜15% of the initial body weight of the animal is typically the maximum desired.
Experimental procedure. MTD for 4-arm-conjugated to cabazitaxel were determined in female athymic nu/nu mice using standard methods. Briefly, 8-12 week old mice were administered test compounds or cabazitaxel intravenously at one week intervals for a total of three doses per mouse (qw×3, iv) as shown in Tables 1 and 2. For all PEG-conjugated test compounds, the doses of both the conjugate and released cabazitaxel, calculated from the cabazitaxel content of the respective conjugate, are shown. […] PEG-cabazitaxel conjugates were prepared in D5W. […] Mice were observed daily for clinical signs and body weights were recorded on days 1-5 and then biweekly until the end of study. All procedures were conducted in compliance with IACUC requirements. […] For any group with two measurements of mean body weight loss of greater than 20%, dosing was stopped and recovery was allowed. Within a group with greater than 20% mean weight loss, individual animals greater than 30% body weight loss were euthanized. Compound dosing was terminated for any group in which mean weight loss exceeded 20% or >10% of animals died. Moribund animals were euthanized and all animals were euthanized at end of study (day 30).
Results. The results for the study MTD “20K Conjugates” are summarized in Table 3 and FIG. 1 while the results for the MTD “30K and 40K Conjugates” study are summarized Table 4 and FIG. 2. […] It should be noted that this is not meant to be a definitive MTD, but is simply a guide to select an appropriate dose for conducting tumor xenograft studies using this administration route and schedule. Note too, that these MTD are given as cabazitaxel equivalents. The actual dose of each conjugate must be corrected for the wt % of cabazitaxel in that specific conjugate.

[2] = tested on: H460 non-small cell lung cancer (NSCLC) implants; conditions: for % TGD / Median TTE (Median Time to Endpoint) / TGD (tumor growth delay compared to vehicle) / CR (Number of Complete Regressions) / Deaths / PR (Number of Partial Regressions) / TFS (Number of Tumor Free Survivors) / MTV (Median Tumor Volume): iv, qwk x 3; for CR (Number of Complete Regressions) / Deaths / PR (Number of Partial Regressions) / TFS (Number of Tumor Free Survivors): N=10; for Complete regression, i.e., no detectable tumor (number of animals): through day 45, dose not given
Procedure: Purpose. Studies were conducted to assess the growth inhibitory effects of PEGylated-conjugates of cabazitaxel on H460 non-small cell lung cancer (NSCLC) implants in athymic nu/nu mice.
Experimental plan. These studies were conducted using routine methods and materials that are familiar to those skilled in the art. Briefly, 8 to 12 week old female nu/nu mice were injected subcutaneously in the flank with 1×10^7 H460 tumor cells in 0.2 mL sterile buffer. […] Animals received three intravenous doses of test article at one week intervals beginning on day 1. Cabazitaxel solutions were prepared in D5W containing 5% Tween 80:10% ethanol. PEG-cabazitaxel conjugates were prepared in D5W. The administration volume for all test articles was 10 mL/kg. The test doses were selected to represent the MTD and ½ the MTD for each test compound. The tables list the actual mg/kg for each test article and the corresponding cabazitaxel equivalent calculated based on the weight-percent cabazitaxel content for each PEGylated conjugate.
Animals were weighed on days 1-5, 7, 9, 11, 13 then biweekly until the end of the study. Tumor sizes were measured using calipers biweekly throughout the study and tumor volumes were calculated using the formula for an ellipsoid sphere: L×W^2/2=mm^3, where L and W are the major axis dimensions of the tumor in mm. Additional parameters that were monitored were the number of non-specific deaths, number of partial and complete tumor regressions, number of tumor-free survivors, and the time required for individual animals' tumors to reach 2000 mm^3. The median time for a tumor to reach 2000 mm^3 in the treatment groups (T) and control group (C) was used to calculate of the overall delay in the growth of the median tumor (TGD). Animals were monitored individually until reaching the experimental endpoint: tumor size of 2000 mm^3 or 45 days, whichever came first. […] When the study endpoint was reached, the animals were euthanized.

[3] = 20K conjugate xenograft study, 12.5 mg/kg cabazitaxel eq.
[4] = 20K conjugate xenograft study, 25 mg/kg cabazitaxel eq.
[5] = 20K conjugate xenograft study, 10 mg/kg cabazitaxel eq.
[6] = 20K conjugate xenograft study, 20 mg/kg cabazitaxel eq.
[7] = 30K and 40K conjugate xenograft study, 10 mg/kg cabazitaxel eq.
[8] = 30K and 40K conjugate xenograft study, 20 mg/kg cabazitaxel eq.
[9] = 30K and 40K conjugate xenograft study
[10] = 30K and 40K conjugate xenograft study, 15 mg/kg cabazitaxel eq.
[11] = 30K and 40K conjugate xenograft study, 30 mg/kg cabazitaxel eq.
[12] = 30K and 40K conjugate xenograft study, 6 mg/kg cabazitaxel eq.
[13] = 30K and 40K conjugate xenograft study, 12 mg/kg cabazitaxel eq.

Substance: 4-ARM-PEG20K-Acetate-Linked Cabazitaxel [4-arm-PEG20K-CM-Cabazitaxel]
- BW Nadir ([1]; 7.5 mg/kg cabazitaxel eq.): −3.4%
- BW Nadir (day) ([1]; 7.5 mg/kg cabazitaxel eq.): 3 days
- Treatment-Related Deaths ([1]; 7.5 mg/kg cabazitaxel eq.): 0
- BW Nadir ([1]; 15 mg/kg cabazitaxel eq.): −2.0%
- BW Nadir (day) ([1]; 15 mg/kg cabazitaxel eq.): 3 days
- Treatment-Related Deaths ([1]; 15 mg/kg cabazitaxel eq.): 0
- BW Nadir ([1]; 30 mg/kg cabazitaxel eq.): −10.2%
- BW Nadir (day) ([1]; 30 mg/kg cabazitaxel eq.): 23 days
- Treatment-Related Deaths ([1]; 30 mg/kg cabazitaxel eq.): 0
- Estimated MTD, cabazitaxel equivalents ([1]; athymic nu/nu mice, guide value, not a definitive MTD): 25 mg/kg
- % TGD [2, 3]: 99%
- Median TTE (Median Time to Endpoint) [2, 3]: 36.8 days
- TGD (tumor growth delay compared to vehicle) [2, 3]: 18.3 days
- CR (Number of Complete Regressions) [2, 3]: 0
- Deaths [2, 3]: 0
- PR (Number of Partial Regressions) [2, 3]: 0
- TFS (Number of Tumor Free Survivors) [2, 3]: 0
- % TGD [2, 4]: 154%
- MTV (Median Tumor Volume) [2, 4]: 358 mm^3
- TGD (tumor growth delay compared to vehicle) [2, 4]: 28.5 days
- CR (Number of Complete Regressions) [2, 4]: 0
- Deaths [2, 4]: 0
- PR (Number of Partial Regressions) [2, 4]: 10
- TFS (Number of Tumor Free Survivors) [2, 4]: 0

Substance: 4-ARM-PEG20K-Alaninate-Linked Cabazitaxel Conjugate [4-arm-PEG20K-CM-alanine-Cabazitaxel]
- % TGD [2, 5]: 93%
- MTV (Median Tumor Volume) [2, 5]: 908 mm^3
- Median TTE (Median Time to Endpoint) [2, 5]: 35.6 days
- TGD (tumor growth delay compared to vehicle) [2, 5]: 17.1 days
- CR (Number of Complete Regressions) [2, 5]: 0
- PR (Number of Partial Regressions) [2, 5]: 0
- TFS (Number of Tumor Free Survivors) [2, 5]: 0
- % TGD [2, 6]: 154%
- MTV (Median Tumor Volume) [2, 6]: 1470 mm^3
- TGD (tumor growth delay compared to vehicle) [2, 6]: 28.5 days
- CR (Number of Complete Regressions) [2, 6]: 0
- PR (Number of Partial Regressions) [2, 6]: 0
- TFS (Number of Tumor Free Survivors) [2, 6]: 0

Substance: 4-ARM-PEG30K-Glycinate-Linked Cabazitaxel Conjugate [4-arm-PEG30K-CM-glycine-Cabazitaxel]
- % TGD [2, 7]: 119%
- MTV (Median Tumor Volume) [2, 7]: 726 mm^3
- Median TTE (Median Time to Endpoint) [2, 7]: 32.7 days
- TGD (tumor growth delay compared to vehicle) [2, 7]: 17.8 days
- CR (Number of Complete Regressions) [2, 7]: 0
- PR (Number of Partial Regressions) [2, 7]: 1
- TFS (Number of Tumor Free Survivors) [2, 7]: 0
- % TGD [2, 8]: 208%
- MTV (Median Tumor Volume) [2, 8]: 478 mm^3
- TGD (tumor growth delay compared to vehicle) [2, 8]: 31.1 days
- CR (Number of Complete Regressions) [2, 8]: 1
- PR (Number of Partial Regressions) [2, 8]: 6
- TFS (Number of Tumor Free Survivors) [2, 8]: 1
- Complete regression, i.e., no detectable tumor (number of animals) [2, 9]: one

Substance: 4-ARM-PEG20K-Glycinate-Linked Cabazitaxel Conjugate [4-arm-PEG20K-CM-glycine-Cabazitaxel]
- % TGD [2, 5]: 63%
- MTV (Median Tumor Volume) [2, 5]: 1200 mm^3
- Median TTE (Median Time to Endpoint) [2, 5]: 30.1 days
- TGD (tumor growth delay compared to vehicle) [2, 5]: 11.6 days
- CR (Number of Complete Regressions) [2, 5]: 0
- PR (Number of Partial Regressions) [2, 5]: 0
- TFS (Number of Tumor Free Survivors) [2, 5]: 0
- % TGD [2, 6]: 154%
- MTV (Median Tumor Volume) [2, 6]: 1183 mm^3
- TGD (tumor growth delay compared to vehicle) [2, 6]: 28.5 days
- CR (Number of Complete Regressions) [2, 6]: 0
- PR (Number of Partial Regressions) [2, 6]: 4
- TFS (Number of Tumor Free Survivors) [2, 6]: 0

Substance: 4-ARM-PEG40K-Glycinate-Linked Cabazitaxel Conjugate [4-arm-PEG40K-CM-glycine-Cabazitaxel]
- % TGD [2, 10]: 146%
- MTV (Median Tumor Volume) [2, 10]: 1632 mm^3
- Median TTE (Median Time to Endpoint) [2, 10]: 36.8 days
- TGD (tumor growth delay compared to vehicle) [2, 10]: 21.9 days
- CR (Number of Complete Regressions) [2, 10]: 0
- PR (Number of Partial Regressions) [2, 10]: 0
- TFS (Number of Tumor Free Survivors) [2, 10]: 0
- % TGD [2, 11]: 208%
- MTV (Median Tumor Volume) [2, 11]: 32 mm^3
- TGD (tumor growth delay compared to vehicle) [2, 11]: 31.1 days
- CR (Number of Complete Regressions) [2, 11]: 1
- TFS (Number of Tumor Free Survivors) [2, 11]: 1
- PR (Number of Partial Regressions) ([2]; 30K and 40K conjugate xenograft study, 30 mg/kg cabazitaxel eq., 30 mg/kg): 9
- PR (Number of Partial Regressions) ([2]; 30K and 40K conjugate xenograft study, 30 mg/kg cabazitaxel eq., listed as 4-arm-PEG40K-CM-glycine-cabazitaxel, 30 mg/kg): 10
- Complete regression, i.e., no detectable tumor (number of animals) [2, 9]: one

Substance: 4-ARM-PEG40K-Alaninate-Linked Cabazitaxel Conjugate [4-arm-PEG40K-CM-alanine-Cabazitaxel]
- % TGD [2, 7]: 101%
- Median TTE (Median Time to Endpoint) [2, 7]: 30.1 days
- TGD (tumor growth delay compared to vehicle) [2, 7]: 15.1 days
- CR (Number of Complete Regressions) [2, 7]: 0
- PR (Number of Partial Regressions) [2, 7]: 0
- TFS (Number of Tumor Free Survivors) [2, 7]: 0
- % TGD [2, 8]: 208%
- MTV (Median Tumor Volume) [2, 8]: 184 mm^3
- TGD (tumor growth delay compared to vehicle) [2, 8]: 31.1 days
- CR (Number of Complete Regressions) [2, 8]: 1
- PR (Number of Partial Regressions) [2, 8]: 4
- TFS (Number of Tumor Free Survivors) [2, 8]: 1
- Complete regression, i.e., no detectable tumor (number of animals) [2, 9]: one

Substance: 4-ARM-PEG30K-Alaninate-Linked Cabazitaxel Conjugate [4-arm-PEG30K-CM-alanine-Cabazitaxel]
- % TGD [2, 12]: 39%
- Median TTE (Median Time to Endpoint) [2, 12]: 20.8 days
- TGD (tumor growth delay compared to vehicle) [2, 12]: 5.9 days
- CR (Number of Complete Regressions) [2, 12]: 0
- PR (Number of Partial Regressions) [2, 12]: 0
- TFS (Number of Tumor Free Survivors) [2, 12]: 0
- % TGD [2, 13]: 158%
- MTV (Median Tumor Volume) [2, 13]: 600 mm^3
- Median TTE (Median Time to Endpoint) [2, 13]: 38.6 days
- TGD (tumor growth delay compared to vehicle) [2, 13]: 23.6 days
- CR (Number of Complete Regressions) [2, 13]: 0
- PR (Number of Partial Regressions) [2, 13]: 0
- TFS (Number of Tumor Free Survivors) [2, 13]: 0

From patent publication US10894087B2, “Multi-arm polymeric prodrug conjugates of cabazitaxel-based compounds” (Nektar Therapeutics, priority 2010, dated 2021)
